Data taken from paper PMC8049054, “Systematic Assessment of Fragment Identification for Multitarget Drug Design” (Chemmedchem, 2021).

How the values were obtained:
RXRα = molecular target: T1, RXRα (Homo sapiens, UniProt P19793); assay: ITC measurement RXRα LBD; type: binding; design: key: n.b.: no binding; w.b.: weak binding; conditions: 50 μM protein, 250 μM compound, 25 °C
T1 construct: MBP (N, cleaved yes); poly-N-tag, His8-tag, TEV site (N, cleaved yes); made in house; host or cells: E. coli T7-express with pGro7 (GroEL/ES)
T1 sequence (P19793 225-462): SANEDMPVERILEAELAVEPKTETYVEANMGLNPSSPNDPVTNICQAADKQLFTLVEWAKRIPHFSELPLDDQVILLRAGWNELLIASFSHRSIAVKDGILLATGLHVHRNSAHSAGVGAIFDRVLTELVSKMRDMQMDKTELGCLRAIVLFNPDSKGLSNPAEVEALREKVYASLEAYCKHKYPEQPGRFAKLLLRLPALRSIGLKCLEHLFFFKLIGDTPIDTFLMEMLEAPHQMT
Experimental: (§1) For hit validation, we employed secondary assays with orthogonal readouts to confirm fragment activities. Biochemical activity assays were chosen for the enzymes sEH, LTA4H, and 5‐LOX. […] RXRα and FXR modulation was assessed in cell‐based hybrid reporter gene assays. All ten compounds were tested at a single concentration of 500 μM in the sEH and LTA4H activity assays and with a concentration of 100 μM on 5‐LOX, RXRα, and FXR. Fragments showing an inhibition greater than 50 % (sEH‐H and LTA4H) or greater than 70 % (5‐LOX) as well as the hits determined in the DSF experiments were further characterized in full concentration‐response curves between 0.1 and 1000 μM. […] As alternative cell‐free assay we employed isothermal titration calorimetry (ITC) to determine binding affinity of the fragments towards the LBDs of both nuclear receptors. ITC was performed with a protein concentration of 50 μM and compound concentrations of 250 μM. […]
(§2) Final concentration per well was 3 nM sEH-Fl, 0.001 % Triton X-100, 25 mM Bis-tris, 0.1 mg/ml BSA, pH = 7.0, 1.6% DMSO […]

FXR = molecular target: T2, FXR (Homo sapiens, UniProt Q96RI1); assay: ITC measurement FXR LBD; type: binding; design: key: n.b.: no binding; w.b.: weak binding; conditions: 50 μM protein, 250 μM compound, 25 °C
T2 construct: His6-tag and TEV site (N, cleaved yes); made in house; host or cells: E. coli BL21 (DE3)
T2 sequence (Q96RI1 244-472 isoform Q96RI1-2): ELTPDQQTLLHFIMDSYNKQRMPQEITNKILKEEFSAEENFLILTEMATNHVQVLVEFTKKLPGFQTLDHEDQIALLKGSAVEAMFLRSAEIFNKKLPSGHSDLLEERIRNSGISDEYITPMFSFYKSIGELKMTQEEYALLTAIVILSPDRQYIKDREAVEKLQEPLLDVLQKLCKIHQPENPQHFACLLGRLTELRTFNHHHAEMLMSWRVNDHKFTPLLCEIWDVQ
Experimental: as §1, §2

[1] = test system: sEH, LTA4H, 5‐LOX, FXR, RXR; assay: Orthogonal (secondary) assays, summary statements over the targets
Experimental: as §1
% (5-LOX) as well as the hits determined in the DSF experiments were further measured with concentrations between 1000 µM and 0.1 µM (sEH-H and LTA4H) and between 300 µM and 1 µM (5-LOX). […] The 5-LOX activity assay was performed with one point per concentration and repeated 3 times Raw data was first analyzed in Microsoft Office Excel (2013), before IC50 curves were plotted and further analyzed using GraphPad Prism 7 and GraphPad Prism 8 for the shown graphs .
The eight approved drugs were measured in the orthogonal assay systems analogous to the fragments. […]
For the sEH-H and LTA4H, they were measured as triplicate in concentrations between 1000 µM and 1 µM and each measurement was repeated three times. For the 5-LOX they were measured as single point measurement in three different experiments with concentrations between 300 µM and 1 µM. […]
The sEH-H activity assay was performed adapted from Hahn et al.5 and Lukin et al.6. […] The Plate was measured every minute for 45 min. […]

sEH-H = molecular target: T3, sEH-H (Homo sapiens, UniProt P34913); assay: ITC measurement sEH-H; type: binding; conditions: 25 °C, read-out: sEH K d
T3 construct: For the expression of sEH-H and sEH-Fl transformed E.coli BL21 (DE3) cells were grown in 5052; made in house; host or cells: E. coli BL21 (DE3)
T3 sequence (P34913 235-555 limits assumed): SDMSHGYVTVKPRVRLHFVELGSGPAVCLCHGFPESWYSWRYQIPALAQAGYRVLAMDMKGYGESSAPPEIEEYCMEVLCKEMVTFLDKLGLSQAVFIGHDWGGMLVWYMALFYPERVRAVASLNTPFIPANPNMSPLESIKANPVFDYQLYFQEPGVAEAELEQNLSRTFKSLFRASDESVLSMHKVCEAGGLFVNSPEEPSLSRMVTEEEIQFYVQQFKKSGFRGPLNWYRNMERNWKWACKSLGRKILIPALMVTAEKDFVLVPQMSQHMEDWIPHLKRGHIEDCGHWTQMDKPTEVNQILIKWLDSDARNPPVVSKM

| SMILES | RXRα K d (RXRα) | FXR K d (FXR) | confirmation of dual DSF hits in the orthogonal experiments [1] | Kd (sEH-H) [µM] |
| --- | --- | --- | --- | --- |
| c1ccc(N2CCNCC2)nc1 [Compound 1] | n.b. | n.b. | – | – |
| Cc1cc(=O)n(-c2ccc(C)c(C)c2)[nH]1 [Compound 2] | – | – | confirmed active | – |
| Oc1ccc2cc[nH]c2c1 [Compound 5] | – | n.b. | – | – |
| Clc1ccc2c(c1)Nc1ccccc1CC2 [Compound 8] | – | w.b. | – | – |
| Oc1ccc(-c2ccc(F)cc2F)cc1 [Compound 9] | n.b. | – | confirmed active | 3.5 |
| Fc1ccc(-c2c[nH]c3ccccc23)cc1 [Compound 10] | n.b. | n.b. | confirmed active | 0.86 |
